SMILES strings stand for the structures. Like-named read-outs stand apart in the source and are kept apart here. A value given as a limit tells only on which side of the number the result lay.

For 7 compounds, half-life and EC50 results are on record in publication doi:10.1101/2020.04.13.040287v1 (biorxiv, 2020).

Data set [1] can be described thus: in vitro. Conditions: human.
Data set [2] is described as follows: in vitro. As to conditions: dog, intestinal s9.
Data set [3] can be described thus: in vitro. Conditions: human, intestinal s9.
A short description of data set [4]: in vitro. Conditions: rat, plasma.
A short description of data set [5]: in vitro. As to conditions: dog.
Data set [6] deals with DEN2. Put plainly: microbe, parasite or virus in culture. Conditions: Dengue virus, K562, read-out: K562 DEN2 assay (EC50).
Data set [7] relates to DEN2. Put plainly: microbe, parasite or virus in culture. As to conditions: Dengue virus, HEK-293T, read-out: 293T DEN2 assay (EC50).
The subject of data set [8] is DEN2. Kind of data set: microbe, parasite or virus in culture. Conditions: Dengue virus, THP-1, read-out: THP-1 DEN2 assay (EC50).
Data set [9] is described as follows: in vitro. Conditions: human, plasma.
Data set [10] is described as follows: in vitro. Conditions: dog, plasma.
Where [11] appears, read: liver s9, Liver S9 T1/2 (min) human.
The mark [12] stands for this setting: liver s9, Liver S9 T1/2 (min) dog.

Consider `CCOc1nc(N)nc2c1ncn2[C@@H]1O[C@@H]2COP(=O)(OC(C)C)O[C@H]2[C@@]1(C)F` (some centres unmarked) [compound 4, PSI-352938], for which the half-life (in general, how long it takes for the measured level to halve) in the data set “in vitro [1]” (setting [11]) was more than 2 h.
In the case of `COc1nc(N)nc2c1ncn2[C@@H]1O[C@H](COP(=O)(N[C@@H](C)C(=O)OC(C)C)Oc2ccccc2)[C@@H](O)[C@@]1(C)F` (some centres unmarked) [compound 5, PSI-353661], the half-life is 1.2 h in the data set “in vitro [2]”; more than 2 h in the data set “in vitro [3]”; 0.3 h in the data set “in vitro [1]” (liver s9); less than 0.0833 h in “in vitro [4]”; 0.85 h in “in vitro [5]” (liver s9).
As to `CCOc1nc(N)nc2c1ncn2C1OC2COP(=O)(NC(C)C(=O)OC(C)C)OC2C1(C)F` (centres unmarked) [compound 12, 12], the half-life in “in vitro [4]” (Plasma T1/2 (min) rat) was less than 0.0833 h; in the data set “in vitro [5]” (setting [12]) it was 0.933 h.
With `CCOc1nc(N)nc2c1ncn2C1OC2COP(=O)(NCC(=O)OC(C)C)OC2C1(C)F` (centres unmarked) [compound 16, 16], the half-life in “in vitro [1]” (setting [11]) is 0.967 h; in the data set “in vitro [4]” (Plasma T1/2 (min) rat), less than 0.0833 h; in the data set “in vitro [5]” (setting [12]), 1.52 h.
Take `CCOC(=O)C(C)NP1(=O)OCC2OC(n3cnc4c(OCC)nc(N)nc43)C(C)(F)C2O1` (centres unmarked) [compound 17, 17]: the figures for the 50% effective concentration (EC50) with DEN2 [6], with DEN2 [7] and with DEN2 [8] were 2790 ± 220 nM, 3400 nM and 460 ± 200 nM, respectively.
As for `COC(=O)C(C)NP1(=O)OCC2OC(n3cnc4c(OC(C)C)nc(N)nc43)C(C)(F)C2O1` (centres unmarked) [compound 19, 19], the half-life was less than 0.0833 h in the data set “in vitro [4]” (Plasma T1/2 (min) rat), 1.88 h in the data set “in vitro [9]” and more than 2 h in “in vitro [10]”.
Turning to `CCOC(=O)C(NP1(=O)OCC2OC(n3cnc4c(OCC)nc(N)nc43)C(C)(F)C2O1)C(C)C` (centres unmarked) [compound 20, 20], the half-life in “in vitro [1]” (setting [11]) amounted to 1.37 h; in “in vitro [4]” (Plasma T1/2 (min) rat) it was 1.1 h; in “in vitro [5]” (setting [12]) it was 1.02 h.
